Results as given in PubChem BioAssay (NCI).
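Protocol summary: plate cells (96-well), add compound at 5 concentrations, incubate 48 h, interpolate endpoints linearly. At the GI50, growth is halved. TGI is the concentration that stops growth completely.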

What was measured:
Assay in all cases: growth of human tumour cells (NCI), 48 h
[1] = system: MDA-MB-231 breast
[2] = system: M14 melanoma
[3] = system: HCT-15 colon
[4] = system: SNB-19 CNS
[5] = system: BT-549 breast
[6] = system: CAKI-1 renal
[7] = system: KM12 colon
[8] = system: SK-MEL-28 melanoma
[9] = system: T-47D breast
[10] = system: A549 NSCLC
[11] = system: PC-3 prostate
[12] = system: K-562 leukemia
[13] = system: NCI-H460 lung
[14] = system: HL-60(TB) leukemia
[15] = system: U251 CNS
[16] = system: MCF7 breast
[17] = system: SF-268 CNS
[18] = system: CCRF-CEM leukemia
[19] = system: A498 renal
[20] = system: ACHN renal
[21] = system: HS 578T breast
[22] = system: SK-MEL-5 melanoma
[23] = system: SW-620 colon
[24] = system: MALME-3M melanoma
[25] = system: LOX IMVI melanoma
[26] = system: SR leukemia
[27] = system: NCI-H226 lung
[28] = system: OVCAR-8 ovarian
[29] = system: SF-295 CNS
[30] = system: RXF 393 renal
[31] = system: UO-31 renal
[32] = system: HCC-2998 colon
[33] = system: NCI-H522 lung
[34] = system: SF-539 CNS
[35] = system: UACC-257 melanoma
[36] = system: 786-0 renal
[37] = system: HOP-92 NSCLC
[38] = system: IGROV1 ovarian
[39] = system: UACC-62 melanoma
[40] = system: HOP-62 NSCLC
[41] = system: OVCAR-4 ovarian
[42] = system: OVCAR-5 ovarian
[43] = system: DU-145 prostate
[44] = system: EKVX NSCLC
[45] = system: HCT-116 colon
[46] = system: COLO 205 colon
[47] = system: SK-MEL-2 melanoma
[48] = system: MOLT-4 leukemia
[49] = system: RPMI-8226 leukemia
[50] = system: SNB-75 CNS
[51] = system: SK-OV-3 ovarian
[52] = system: TK-10 renal
[53] = system: HT29 colon
[54] = system: MDA-MB-435

Work on `Cc1ccc(N2CCN(C3=C(Cl)C(=O)c4ncccc4C3=O)CC2)cc1` yielded a GI50 [1] of 1.59 µM, a TGI [1] of 3.09 µM and a GI50 [2] of 1.84 µM. The TGI [2] was 3.69 µM, the GI50 [3] was 1.54 µM and the TGI [3] was 3.28 µM. The GI50 [4] was 13.4 µM, the TGI [4] was 26.4 µM and the GI50 [5] was 5.51 µM. It also gave a TGI [5] of 17.3 µM, a GI50 [6] of 1.68 µM and a TGI [6] of 3.09 µM. For the same compound, the GI50 [7] was 17.5 µM, the TGI [7] was 32 µM and the GI50 [8] was 2.35 µM. The TGI [8] was 5.25 µM, the GI50 [9] was 1.61 µM and the TGI [9] was 4.04 µM. It also gave a GI50 [10] of 15 µM, a TGI [10] of 33.3 µM and a GI50 [11] of 2.85 µM. For the same compound, the TGI [11] was 11.9 µM, the GI50 [12] was 1.35 µM and the TGI [12] was 8.53 µM. For the same compound, the GI50 [13] was 4.49 µM, the TGI [13] was 22.6 µM and the GI50 [14] was 1.35 µM. It also gave a TGI [14] of 3.87 µM, a GI50 [15] of 1.79 µM and a TGI [15] of 3.42 µM. For the same compound, the GI50 [16] was 1.22 µM, the TGI [16] was 3.23 µM and the GI50 [17] was 5.91 µM. It also gave a TGI [17] of 22.2 µM, a GI50 [18] of 2.21 µM and a TGI [18] of 7.09 µM. The GI50 [19] was 15 µM, the TGI [19] was 28.4 µM and the GI50 [20] was 1.61 µM. It also gave a TGI [20] of 2.96 µM, a GI50 [21] of 3.64 µM and a TGI [21] of 34.5 µM. For the same compound, the GI50 [22] was 1.86 µM, the TGI [22] was 3.77 µM and the GI50 [23] was 1.47 µM. The TGI [23] was 3.08 µM, the GI50 [24] was 1.77 µM and the TGI [24] was 3.34 µM. The GI50 [25] was 1.52 µM, the TGI [25] was 2.91 µM and the GI50 [26] was 0.504 µM. For the same compound, the TGI [26] was 4.8 µM, the GI50 [27] was 10.1 µM and the TGI [27] was 26.5 µM. It also gave a GI50 [28] of 1.6 µM, a TGI [28] of 2.99 µM and a GI50 [29] of 2.12 µM. It also gave a TGI [29] of 4.86 µM, a GI50 [30] of 1.79 µM and a TGI [30] of 3.23 µM. For the same compound, the GI50 [31] was 1.53 µM, the TGI [31] was 3.11 µM and the GI50 [32] was 1.77 µM. For the same compound, the TGI [32] was 3.38 µM, the GI50 [33] was 1.76 µM and the TGI [33] was 3.53 µM. It also gave a GI50 [34] of 1.85 µM, a TGI [34] of 3.5 µM and a GI50 [35] of 1.75 µM. It also gave a TGI [35] of 3.3 µM, a GI50 [36] of 3.35 µM and a TGI [36] of 10.2 µM. It also gave a GI50 [37] of 1.63 µM, a TGI [37] of 3.17 µM and a GI50 [38] of 1.74 µM. The TGI [38] was 3.21 µM, the GI50 [39] was 1.84 µM and the TGI [39] was 3.6 µM. It also gave a GI50 [40] of 15.4 µM, a TGI [40] of 29.4 µM and a GI50 [41] of 1.68 µM. It also gave a TGI [41] of 3.29 µM, a GI50 [42] of 3.36 µM and a TGI [42] of 11.4 µM. For the same compound, the GI50 [43] was 6.05 µM, the TGI [43] was 18.3 µM and the GI50 [44] was 1.73 µM. The TGI [44] was 3.14 µM, the GI50 [45] was 1.62 µM and the TGI [45] was 2.97 µM. For the same compound, the GI50 [46] was 1.84 µM, the TGI [46] was 3.33 µM and the GI50 [47] was 2.11 µM. It also gave a TGI [47] of 4.48 µM, a GI50 [48] of 2.09 µM and a TGI [48] of 5.59 µM. For the same compound, the GI50 [49] was 2.14 µM, the TGI [49] was 5.79 µM and the GI50 [50] was 12.8 µM. For the same compound, the TGI [50] was 33.3 µM, the GI50 [51] was 12.8 µM and the TGI [51] was 25.8 µM. It also gave a GI50 [52] of 7.15 µM, a TGI [52] of 18.1 µM and a GI50 [53] of 5.05 µM. For the same compound, the TGI [53] was 19.3 µM, the GI50 [54] was 1.91 µM and the TGI [54] was 3.51 µM.
